From the CheMixHub ionic liquid set

Experiment: xn = mol fraction of the nth substance listed

CCCC[n+]1ccn(C)c1.F[B-](F)(F)F + OCCOCCOCCOCCO
Conditions | viscosity [mPa·s]
298.15 K, 101 kPa, x2 = 0 | 94.4

CCCC[n+]1ccn(C)c1.F[B-](F)(F)F + NC=O
101 kPa, x1 = 1
Conditions | viscosity [mPa·s]
308.15 K | 58.4
318.15 K | 38.7

CC(C)[C@H]1CC[C@H](C)C[C@@H]1O + CCCCCCCC[N+](CCCCCCCC)(CCCCCCCC)CCCCCCCC.[Br-] + [Cl-].[Cl-].[Co+2]
296.1 K, 101.3 kPa
Conditions | viscosity [mPa·s]
x2 = 0.2857, x3 = 0.1429 | 11900
x2 = 0.4, x3 = 0.2 | 22000
x2 = 0.4286, x3 = 0.1429 | 17800

CCC[N+]1(C)CCCC1.O=S(=O)([N-]S(=O)(=O)C(F)(F)F)C(F)(F)F + CCCCCC[N+]1(C)CCCC1.O=S(=O)([N-]S(=O)(=O)C(F)(F)F)C(F)(F)F
353.15 K, 101 kPa, x2 = 0
Conditions | electrical conductivity [S/m] | viscosity [mPa·s]
– | 1.76 | 11.6

CC1COC(=O)O1 (stereo not given) + CCCCCCCCn1cc[n+](C)c1.F[B-](F)(F)F
Conditions | viscosity [mPa·s]
323.15 K, 99.7 kPa, x1 = 1 | 1.77

CCCC[n+]1cccc(C)c1.F[B-](F)(F)F + O
298.15 K, 101 kPa
Conditions | electrical conductivity [S/m]
x1 = 0.0002144 | 0.107
x1 = 0.0004179 | 0.2
x1 = 0.0004845 | 0.232
x1 = 0.0007527 | 0.331
x1 = 0.001001 | 0.448
x1 = 0.001159 | 0.5
x1 = 0.00129 | 0.549
x1 = 0.001546 | 0.642
x1 = 0.001714 | 0.709
x1 = 0.001876 | 0.763
x1 = 0.002129 | 0.837
x1 = 0.002298 | 0.886
x1 = 0.002565 | 0.977
x1 = 0.002757 | 1.03
x1 = 0.002862 | 1.08
x1 = 0.003167 | 1.15
x1 = 0.003324 | 1.2

CCCC[n+]1ccn(C)c1.F[B-](F)(F)F + OCCO
298.15 K, 100 kPa, x1 = 1
Conditions | electrical conductivity [S/m] | viscosity [mPa·s]
– | 0.243 | 104.7

CN(CCO)CCO + CCCC[n+]1ccn(C)c1.F[B-](F)(F)F + O
viscosity [mPa·s], 101 kPa
Conditions | 293.15 K | 303.15 K | 313.15 K | 323.15 K | 333.15 K
x2 = 0.0987, x1 = 0.7994 | 86.7 | 48.2 | 28.8 | 18.4 | 12.32
x2 = 0.0989, x1 = 0.623 | 77.4 | 43.7 | 26.1 | 16.6 | 11.12
x2 = 0.0991, x1 = 0.4459 | 59.2 | 33.7 | 20.4 | 13.16 | 8.94
x2 = 0.0993, x1 = 0.2681 | 32.9 | 19.2 | 12.08 | 8.13 | 5.78
x2 = 0.0995, x1 = 0.0895 | 8.59 | 5.78 | 4.14 | 3.11 | 2.41
x2 = 0.1972, x1 = 0.7097 | 77.7 | 43.1 | 26 | 16.8 | 11.42
x2 = 0.1978, x1 = 0.5528 | 67.4 | 37.3 | 22.6 | 14.63 | 9.99
x2 = 0.1979, x1 = 0.3957 | 50.3 | 28.3 | 17.5 | 11.53 | 8.07
x2 = 0.1982, x1 = 0.2378 | 28.6 | 17 | 11.04 | 7.72 | 5.63
x2 = 0.1986, x1 = 0.0794 | 10.66 | 7.28 | 5.26 | 3.98 | 3.12
x2 = 0.2954, x1 = 0.6203 | 72.6 | 40.5 | 24.7 | 16.15 | 11.16
x2 = 0.2959, x1 = 0.4832 | 60.5 | 34.2 | 21.1 | 13.97 | 9.79
x2 = 0.2963, x1 = 0.3457 | 45 | 26.1 | 16.5 | 11.2 | 8.04
x2 = 0.2968, x1 = 0.2077 | 27.8 | 17.2 | 11.44 | 8.18 | 6.09
x2 = 0.2972, x1 = 0.0694 | 13.16 | 9.12 | 6.68 | 5.08 | 4
x2 = 0.3934, x1 = 0.531 | 68.7 | 39.1 | 24.3 | 16.14 | 11.32
x2 = 0.3939, x1 = 0.4136 | 56.5 | 32.9 | 20.8 | 14.05 | 10.02
x2 = 0.3944, x1 = 0.2958 | 43 | 25.9 | 16.8 | 11.65 | 8.49
x2 = 0.395, x1 = 0.1777 | 28.8 | 18.3 | 12.49 | 8.99 | 6.8
x2 = 0.3955, x1 = 0.0593 | 16.8 | 11.66 | 8.53 | 6.54 | 5.13
x2 = 0.4912, x1 = 0.442 | 66.5 | 38.9 | 24.6 | 16.7 | 11.88
x2 = 0.4917, x1 = 0.3442 | 57.5 | 34.4 | 21.8 | 14.94 | 10.7
x2 = 0.4923, x1 = 0.2461 | 44.3 | 27.4 | 18.2 | 12.72 | 9.42
x2 = 0.493, x1 = 0.1478 | 32.9 | 21.3 | 14.71 | 10.66 | 8.1
x2 = 0.4934, x1 = 0.0493 | 22.1 | 15.2 | 10.99 | 8.33 | 6.54
x2 = 0.5887, x1 = 0.3532 | 69.7 | 41.6 | 26.2 | 17.9 | 12.88
x2 = 0.5893, x1 = 0.275 | 60 | 37.1 | 23.5 | 16.3 | 11.86
x2 = 0.5898, x1 = 0.1966 | 49.1 | 30.6 | 20.7 | 14.67 | 10.75
x2 = 0.5903, x1 = 0.118 | 39.4 | 25.6 | 17.7 | 12.8 | 9.64
x2 = 0.5909, x1 = 0.0394 | 29.3 | 20 | 14.32 | 10.68 | 8.29
x2 = 0.6861, x1 = 0.2646 | 74.6 | 45.2 | 28.8 | 19.8 | 14.34
x2 = 0.6866, x1 = 0.2059 | 66.4 | 41 | 26.5 | 18.5 | 13.45
x2 = 0.687, x1 = 0.1472 | 57.5 | 35.8 | 24.1 | 17.1 | 12.65
x2 = 0.6874, x1 = 0.0884 | 47.3 | 30.3 | 20.9 | 15.08 | 11.36
x2 = 0.6877, x1 = 0.0295 | 40.3 | 26.6 | 18.8 | 13.79 | 10.55
x2 = 0.7831, x1 = 0.1762 | 84.7 | 51.6 | 32.9 | 22.7 | 16.5
x2 = 0.7836, x1 = 0.1371 | 78.6 | 48.6 | 31.5 | 22 | 16.01
x2 = 0.7839, x1 = 0.0979 | 72.2 | 44.8 | 29.8 | 20.9 | 15.35
x2 = 0.7842, x1 = 0.0588 | 65.6 | 41.8 | 28.1 | 20 | 14.73
x2 = 0.7845, x1 = 0.0196 | 56.4 | 36.7 | 25 | 18 | 13.44
x2 = 0.8801, x1 = 0.0879 | 102 | 62.1 | 40.3 | 27.1 | 19.5
x2 = 0.8804, x1 = 0.0684 | 99.2 | 60.7 | 39.7 | 26.8 | 19.3
x2 = 0.8805, x1 = 0.0294 | 90.7 | 56.4 | 37.2 | 25.5 | 18.5
x2 = 0.8806, x1 = 0.0098 | 80.9 | 50.9 | 33.8 | 23.7 | 17.3
x2 = 0.8806, x1 = 0.0488 | 94.5 | 58.3 | 38.5 | 26.1 | 18.9

O + CCCCCCCCCCCCCC[n+]1ccccc1.O=C([O-])C(O)c1ccccc1 + C[C@H](N)C(=O)O
101 kPa, x2 = 0, x3 = 0
Conditions | electrical conductivity [S/m]
293.15 K | 0.00012
298.15 K | 0.00015
303.15 K | 0.00016
308.15 K | 0.00017
313.15 K | 0.00019

CC[P+](CC)(CC)COCCOC.c1c[n-]nn1 + CCCCCC[n+]1ccn(C)c1.O=S(=O)([N-]S(=O)(=O)C(F)(F)F)C(F)(F)F
100 kPa
Conditions | viscosity [mPa·s]
278.15 K, x2 = 0.75 | 235
288.15 K, x2 = 0.25 | 136
293.15 K, x2 = 0.25 | 103
298.15 K, x2 = 0.75 | 76
303.15 K, x2 = 0.5 | 60

CCCC[n+]1ccn(C)c1.F[B-](F)(F)F + ClCCl
298.15 K, 101 kPa, x2 = 0
Conditions | electrical conductivity [S/m] | viscosity [mPa·s]
– | 0.194 | 116

CCCC[n+]1ccn(C)c1.F[B-](F)(F)F + Cc1ccccc1
viscosity [mPa·s], 101 kPa
Conditions | x2 = 0.05 | x2 = 0.1 | x2 = 0.2 | x2 = 0.3 | x2 = 0.33
298.15 K | 80.4 | 74.5 | 59.9 | 47.9 | 44.8
300.65 K | 54.8 | 50.7 | 39.3 | 29.3 | 27.8
303.15 K | 41.3 | 38.1 | 29.2 | 21.6 | 20.46
305.65 K | 33.3 | 30.6 | 23.5 | 17.49 | 16.56
308.15 K | 28 | 25.7 | 19.89 | 15 | 14.18
310.65 K | 24.4 | 22.36 | 17.41 | 13.35 | 12.59
313.15 K | 21.75 | 19.9 | 15.63 | 12.18 | 11.46
315.65 K | 19.74 | 18.04 | 14.3 | 11.31 | 10.62
318.15 K | 18.18 | 16.59 | 13.26 | 10.64 | 9.97
320.65 K | 16.93 | 15.43 | 12.44 | 10.11 | 9.46
323.15 K | 15.91 | 14.49 | 11.76 | 9.68 | 9.05
325.65 K | 15.07 | 13.71 | 11.21 | 9.32 | 8.7
328.15 K | 14.36 | 13.05 | 10.74 | 9.02 | 8.41
330.65 K | 13.75 | 12.48 | 10.35 | 8.77 | 8.17
333.15 K | 13.23 | 12 | 10 | 8.55 | 7.96
335.65 K | 12.77 | 11.58 | 9.7 | 8.36 | 7.77
338.15 K | 12.37 | 11.21 | 9.44 | 8.19 | 7.61
